“And” between values parts separate entries of the source, which are not always exact repeats. Identical values can stand only once. ± gives the expanded uncertainty stated by the source.
Settings: for mass density: 407.69 K, Fluid (supercritical or subcritical phases), Bellows volumetry

SMILES: CC(C)C [2-methylpropane]
- mass density (3627.5 kPa): 203.1 ± 1.8 kg/m3
- mass density (3629.3 kPa): 205.78 ± 2 kg/m3
- mass density (3631.2 kPa): 208.58 ± 2.2 kg/m3
- mass density (3632.8 kPa): 211.59 ± 3.3 kg/m3
- mass density (3634 kPa): 214.88 ± 4.6 kg/m3
- mass density (3634.8 kPa): 218.47 ± 4.5 kg/m3
- mass density (3635.3 kPa): 222.42 ± 5.1 kg/m3
- mass density (3635.4 kPa): 223.5 ± 5.1 kg/m3
- mass density (3635.7 kPa): 225.57 ± 5.1 kg/m3 and 226.64 ± 5.1 kg/m3
- mass density (3636.3 kPa): 228.77 ± 5 kg/m3
- mass density (3637 kPa): 230.86 ± 5.4 kg/m3
- mass density (3638.4 kPa): 235.26 ± 4.3 kg/m3
- mass density (3639.6 kPa): 239.96 ± 4.2 kg/m3
- mass density (3641.1 kPa): 244.93 ± 4.3 kg/m3
- Critical temperature (Liquid, Visual observation in a stirred cell): 407.69 ± 0.05 K

Source: the NIST ThermoML archive (doi:10.1007/s10765-017-2256-0)
